What was measured:
human PGI2 receptors = target: T1, human PGI2 receptors (Homo sapiens, UniProt P43119); assay: PGI2 receptor binding assay; settings: membrane fraction of CHO cells expressing human PGI2 receptors, [3H]Iloprost 20 nM, pH 6.0, 37° C. 1 hour; read-out: IC50, inhibition of [3H]Iloprost binding to the human PGI2 receptor
T1 construct: expressed in transfected cells; host or cells: CHO cells (membrane fraction)
Procedure: PGI2 receptor binding assay
MES-NaOH buffer (pH 6.0) (500 μL) containing the membrane fraction (40 μg) of CHO cells caused to express human PGI2 receptors, [^3H]Iloprost (20 nM), and a test compound solution (50 μL) was incubated at 37° C. for 1 hour and then filtered through a membrane filter to separate the membrane-bound [^3H]Iloprost from the non-membrane-binding [^3H]Iloprost. The radioactivity of the membrane-bound [^3H]Iloprost was determined with a liquid scintillation counter and the binding inhibition rate in each drug treatment group was determined against the specific binding of [^3H]Iloprost to the human PGI2 receptor in the control (solvent) group.
The test compound was added at the final concentrations of 10^−6 to 10^−11 M and the IC50 values were calculated from the inhibition rates at the respective concentrations.

human platelets = assay: Platelet aggregation inhibition assay; type: cell-based; settings: ADP-induced aggregation, platelet-rich plasma from healthy male adult donors, 37° C.
Procedure: Platelet aggregation inhibition assay
The citrated blood from healthy male adult donors was centrifuged at 1000×g for […] and 20 minutes to harvest platelet-rich plasma (PRP) and platelet-poor plasma (PPP), respectively. Then, PRP was diluted with PPP to a platelet count of 300,000/μL. The degree of platelet aggregation was measured with a platelet aggregation measuring apparatus.
In the assay cuvette, 200 μL of PRP was incubated at 37° C. for 2 minutes. Then, 20 μL of a test drug solution was added and the mixture was further incubated for 2 minutes. Thereafter, aggregation was induced by adding 20 μl of ADP solution. The aggregation in the drug treatment group was compared with the maximum aggregation in the control group to find the inhibition rate. ADP was used in the minimal concentration (2×10^−6 to 3×10^−5 M) inducing maximal aggregation in each assay.
The test compound was added at the final concentrations of 10^−3 to 10^−9 and the IC50 value was calculated from the inhibition rates at the respective concentrations.

T1 sequence (P43119 whole entry): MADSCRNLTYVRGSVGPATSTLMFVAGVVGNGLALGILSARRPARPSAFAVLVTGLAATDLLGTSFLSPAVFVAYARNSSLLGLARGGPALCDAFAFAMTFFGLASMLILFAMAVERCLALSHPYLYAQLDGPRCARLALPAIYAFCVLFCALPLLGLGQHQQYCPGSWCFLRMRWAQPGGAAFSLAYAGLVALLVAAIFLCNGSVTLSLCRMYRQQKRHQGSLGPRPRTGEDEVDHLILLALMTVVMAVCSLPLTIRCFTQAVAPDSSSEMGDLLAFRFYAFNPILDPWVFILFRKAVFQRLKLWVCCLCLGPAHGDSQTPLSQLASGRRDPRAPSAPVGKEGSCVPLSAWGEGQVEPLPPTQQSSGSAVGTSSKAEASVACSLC

| SMILES | IC50 (human PGI2 receptors) [nM] | IC50 (human platelets) [nM] |
| --- | --- | --- |
| O=C(O)COc1cccc2c1OCc1sc(SCCC(c3ccccc3)c3ccccc3)nc1-2 [Example 11, [[2-(3,3-Diphenylpropyl)thio-4H-[1]benzopyrano[4,3-d]thiazol-6-yl]oxy]acetate acid] | 81 |  |
| O=C(O)COc1cccc2c1OCc1sc(SCC(c3ccccc3)c3ccccc3)nc1-2 [Example 12, [[2-(2,2-Diphenylethyl)thio-4H-[1]benzopyrano[4,3-d]thiazol-6-yl]oxy]acetic acid] | 61 |  |
| O=C(O)COc1cccc2c1CCc1sc(SCC(c3ccccc3)c3ccccc3)nc1-2 [Example 1, [[2-(2,2-Diphenylethyl)thio-4,5-dihydronaphtho[1,2-d]thiazol-6-yl]oxy]acetic acid] | 24 | 540 |
| O=C(O)COc1cccc2c1CCc1sc(SC(c3ccccc3)c3ccccc3)nc1-2 [Example 21, [(2-Diphenylmethylthio-4,5-dihydronaphtho[1,2-d]thiazol-6-yl)oxy]acetic acid] | 2 | 210 |
| O=C(O)COc1cccc2c1CCc1sc(S(=O)(=O)CC(c3ccccc3)c3ccccc3)nc1-2 [Example 29, [[2-(2,2-Diphenylethyl)sulfonyl-4,5-dihydronaphtho[1,2-d]thiazol-6-yl]oxy]acetic acid] | 21 |  |

Source: US6417213B2, “Tricyclic compound, their production and use” (Takeda Chemical Industries, Ltd., priority 1996, dated 2002)
